How the values were obtained:
Assay type in all cases: in vivo
[1] = test system: LC3 protein fused to ZsGreen under the control of a skeletal muscle specific promoter; assay: zebrafish autophagy reporter, number of LC3 punctae in larvae; details: for autophagy activation by individual amino acids (FIG. 1) / autophagy activation by individual amino acids (FIG. 2) / autophagy activation by individual amino acids (FIG. 3): zebrafish larvae, 0.25 to 10 mM, 16 hours of treatment; for effect on basal autophagy: summary statement referring to the experimental data
Description: Z stack images were captured for each larva and maximal projection images were produced. Number of LC3 punctae have been calculated with MetaXpress software (Moleculare Devices) and normalized by fish area.

bone stiffness = bone stiffness (bone strength) in old mice after 3 months; details: old mice (78 weeks old), thymol by gavage, AA mix in water, FIG. 6b
Description: (§1) Assessment of the long term (3 months) effect of thymol (an exemplary autophagy-inducing agent) and an amino acid mix, known as autophagy inducers, alone or in combination, on muscle function in old mice. […] Old mice (78 weeks old; n=12/group; inventions) were taking 1) thymol (compound 1); 2) an amino acid (AA) mix and thymol (compounds 2 and 1); or 3) the AA mix (compound 2). In the experiments, thymol was given by gavage; the AA mix was given in water; and alanine for isonitrogenous was given as a control to young mice (Adult). Old untreated mice were also used as another control (old untreated). The AA mix comprises 28.67% of Leucine, 14.29% of Isoleucine, 14.29% of Valine, 12.21% of Proline, 12.21% of Glycine, 14.84% of Lysine and 3.48% of Cysteine (See Table 1).

bone mineral density = bone mineral density in old mice after 3 months; details: old mice (78 weeks old), thymol by gavage, AA mix in water, FIG. 6a
Description: as §1

SMILES: CC(C)[C@H](N)C(=O)O [Valine]
- autophagy activation by individual amino acids (FIG. 1) [1]: show at least some autophagy activation effects
- autophagy activation by individual amino acids (FIG. 2) [1]: show autophagy activation effects

SMILES: N=C(N)NCCC[C@H](N)C(=O)O [Arginine]
- effect on basal autophagy [1]: reduce basal autophagy
- autophagy activation by individual amino acids (FIG. 1) [1]: show at least some autophagy activation effects
- autophagy activation by individual amino acids (FIG. 3) [1]: shows less autophagy activation effects

SMILES: CC(C)C[C@H](N)C(=O)O [Leucine]
- effect on basal autophagy [1]: reduce basal autophagy
- autophagy activation by individual amino acids (FIG. 2) [1]: does not show any autophagy activation effect

SMILES: O=C(O)[C@@H]1CCCN1 [Proline]
- autophagy activation by individual amino acids (FIG. 1) [1]: show at least some autophagy activation effects
- autophagy activation by individual amino acids (FIG. 3) [1]: show clear autophagy activation effects

SMILES: CC[C@H](C)[C@H](N)C(=O)O [Isoleucine]
- effect on basal autophagy [1]: reduce basal autophagy

SMILES: N[C@@H](CS)C(=O)O [Cysteine]
- autophagy activation by individual amino acids (FIG. 1) [1]: show at least some autophagy activation effects
- autophagy activation by individual amino acids (FIG. 2) [1]: show autophagy activation effects

SMILES: NC(=O)C[C@H](N)C(=O)O [Asparagine]
- autophagy activation by individual amino acids (FIG. 1) [1]: show at least some autophagy activation effects

SMILES: NCC(=O)O [Glycine]
- autophagy activation by individual amino acids (FIG. 1) [1]: show at least some autophagy activation effects
- autophagy activation by individual amino acids (FIG. 2) [1]: show autophagy activation effects

SMILES: N[C@@H](Cc1ccc(O)cc1)C(=O)O [Tyrosine]
- autophagy activation by individual amino acids (FIG. 1) [1]: show at least some autophagy activation effects

SMILES: N[C@@H](CCC(=O)O)C(=O)O [Glutamate]
- autophagy activation by individual amino acids (FIG. 1) [1]: show at least some autophagy activation effects
- autophagy activation by individual amino acids (FIG. 3) [1]: show clear autophagy activation effects

SMILES: Cc1ccc(C(C)C)c(O)c1 [thymol]
- increase in bone stiffness as compared with the control of the old untreated (bone stiffness): 12%
- increase in bone mineral density as compared with the control of the old untreated (bone mineral density): 1.6%

SMILES: N[C@@H](Cc1ccccc1)C(=O)O [Phenylalanine]
- autophagy activation by individual amino acids (FIG. 1) [1]: show at least some autophagy activation effects

SMILES: NC(=O)CC[C@H](N)C(=O)O [Glutamine]
- effect on basal autophagy [1]: reduce basal autophagy

From patent publication US20220184015A1, “COMPOSITIONS AND METHODS TO POTENTIATE MUSCULOSKELETAL EFFECT OF ONE OR MORE ANABOLIC AMINO ACIDS ON BONE HEALTH” (SOCIETE DES PRODUITS NESTLE S.A., priority 2019, published 2022)
